As a reminder, the viability is a read-out of living cells in per cent, often relative to untreated cells.

The nature of this data set: in vitro. The conditions noted are these: human, hela cells, % viability.
As for `COc1ccc2c(CC(=O)Nc3cccc(-c4csc(C)n4)c3)coc2c1` [CBK295149], the viability at 28.5 h, 10 µM turned out to be 94%. In the case of `Cn1cnnc1SCC(=O)Nc1c(F)cccc1F` [CBK295150], the viability at 28.5 h, 10 µM turned out to be 88.2%. In the case of `O=C(c1ccccn1)N(CCc1ccccc1)c1nc2ccccc2s1` [CBK295151] it was 97.5%; in that of `CC(NCC(=O)N1c2ccccc2NC(=O)CC1C)c1ccc(-c2ccccc2)cc1` (centres unmarked) [CBK295155], 84.2%.

Regarding `C=CCOc1ccc(CN(C)Cc2nc3cc(C(=O)O)ccc3c(=O)[nH]2)cc1` [CBK295156], the viability at 28.5 h, 10 µM turned out to be 101%. Consider `CC(NCc1nc(=O)c2sccc2[nH]1)c1ccc2c(c1)OCCO2` (centres unmarked) [CBK295157], for which the viability at 28.5 h, 10 µM came to 88.4%. For the molecule `Cc1ccc(C(=O)NC(C)c2nc3ccccc3n2Cc2ccc(C(=O)O)o2)cc1` (centres unmarked) [CBK295159], the viability at 28.5 h, 10 µM amounted to 107%. In the case of `O=C(CSc1nnnn1CC1CCCO1)N1CC=C(c2ccccc2)CC1` (centres unmarked) [CBK295160] it was 82%; in that of `CCN(CC)S(=O)(=O)c1ccc2c(c1)CCCN2C(=O)c1ccc(C#N)cc1` [CBK295161], 85.9%; in that of `CC(=O)Nc1ccc(NS(=O)(=O)c2ccc(C)c(C(=O)O)c2)cc1` [CBK295162], 85.9%. In the case of `Cc1cc(C)cc(-c2nnc(SCCC(=O)NC(N)=O)o2)c1` [CBK295164] it was 107%. In the case of `CCOC(=O)C1CCN(Cn2nc(-c3cccs3)oc2=S)CC1` [CBK295165] it was 85.9%; in that of `CC(C)c1nn(CN(C)Cc2ccccc2)c(=S)[nH]1` [CBK295166], 102%. Consider `O=C(NCc1cn2ccccc2n1)c1ccc(C2SCCS2)cc1` [CBK295167], for which the viability at 28.5 h, 10 µM turned out to be 83.5%.

Consider `CCCn1c(SC(C)C(=O)Nc2ccc(S(=O)(=O)NC(C)C)cc2)n[nH]c1=O` (centres unmarked) [CBK295169], for which the viability at 28.5 h, 10 µM amounted to 87.9%. In the case of `Cc1ccc(SCCC(=O)NC(CCC(=O)O)C(=O)O)cc1` (centres unmarked) [CBK295173] it was 88%. Regarding `Cc1ccc(SCCC(=O)NC(CC(=O)O)C(=O)O)cc1` (centres unmarked) [CBK295174], the viability at 28.5 h, 10 µM turned out to be 103%.

Turning to `O=C(Cc1csc(-c2ccc(F)cc2)n1)Nc1ccc(F)cc1` [CBK295177], the viability at 28.5 h, 10 µM was found to be 82.3%.

Turning to `Cc1[nH]c(C(=O)NCCc2ccco2)c(C)c1C(=O)OC(C)C` [CBK295180], the viability at 28.5 h, 10 µM came to 84.1%. Consider `CN(C)c1cccc(C(=O)Nc2ccccc2N2CCOCC2)c1` [CBK295184], for which the viability at 28.5 h, 10 µM is 76.2%. In the case of `CN(CC(=O)Nc1ccccc1N1CCCC1)Cc1cnn(Cc2ccccc2)c1` [CBK295187] it was 105%. With `CN(CC(=O)Nc1ccc(N(C)C)cc1)Cc1ccc(F)cc1` [CBK295188] the figure was 86.1%; with `Cn1c(SCc2cc(-c3ccc(Cl)cc3)no2)nnc1-c1ccco1` [CBK295193], 81.9%; with `Cc1ccnc2nc(C(=O)Nc3ccc4c(c3)CCC4)nn12` [CBK295194], 74.9%.

Turning to `NC(=O)COc1ccc(C2Nc3ccccc3C(=O)N2C2CC2)cc1` (centres unmarked) [CBK295198], the viability at 28.5 h, 10 µM stood at 98.2%. In the case of `Cn1nc(-c2ccc(Cl)cc2)cc1NC(=O)Cn1nnc(-c2ccc(F)cc2)n1` [CBK295203], the viability at 28.5 h, 10 µM amounted to 82.7%. In the case of `Cc1ccc(C)c(-n2nnnc2SC(C)C(=O)N2CCCC2)c1` (centres unmarked) [CBK295204], the viability at 28.5 h, 10 µM was 79.9%. In the case of `C=CCn1c(-c2sc(NC(=O)c3ccc(C)c(C)c3)nc2C)n[nH]c1=S` [CBK295294] it was 88.7%; in that of `O=C(O)c1cccc(NS(=O)(=O)c2ccc(S(=O)(=O)N3CCCCC3)cc2)c1` [CBK295295], 101%; in that of `O=C(O)c1cc(Cl)c(OCc2cc(-c3ccccc3)no2)c(Cl)c1` [CBK295297], 86.7%.

Consider `C=CCn1c(Cc2csc(NC(=O)c3ccc(C(C)=O)s3)n2)n[nH]c1=S` [CBK295299], for which the viability at 28.5 h, 10 µM came out at 77%. In the case of `CCOc1ccc(-c2nc(CC(=O)O)cs2)cc1` [CBK295300] it was 87.7%; in that of `Cc1nn(CC(C)C)c(C)c1CCC(=O)N(C)Cc1c(C)nn(-c2ccccc2)c1C` [CBK295301], 108%. In the case of `Cc1cc(COC(=O)c2nn(-c3ccc(F)cc3)c3c2CCCC3)on1` [CBK295305], the viability at 28.5 h, 10 µM turned out to be 105%. In the case of `CCOC(=O)c1ccc(S(=O)(=O)Nc2cc(C(=O)O)ccc2F)cc1` [CBK295308] it was 84%; in that of `Cc1cc(C(=O)CSc2nnc(C3CC3)[nH]2)c(C)n1-c1cccc(C(F)(F)F)c1` [CBK295310], 80.6%. With `C=CCn1c(Cc2csc(NC(=O)Cc3cc(OC)c(OC)c(OC)c3)n2)n[nH]c1=S` [CBK295311] the figure was 87.1%. In the case of `O=c1[nH]c2ccc(NS(=O)(=O)c3ccc4c(c3)OCCCO4)cc2[nH]1` [CBK295315], the viability at 28.5 h, 10 µM worked out at 87.7%. In the case of `O=[N+]([O-])c1ccc(NC(c2ccccc2)C2CC2)nc1` (centres unmarked) [CBK295317] it was 96.6%; in that of `C=CCn1c(Cc2csc(NC(=O)c3cnc(C)cn3)n2)n[nH]c1=S` [CBK295319], 90.4%; in that of `O=C(Cn1nc(C(=O)O)c2ccccc2c1=O)NCc1ccc(Cl)cc1Cl` [CBK295320], 85.4%. In the case of `COc1ccc(NC(=O)C(C)n2nc(C(=O)O)c3ccccc3c2=O)cc1` (centres unmarked) [CBK295322] it was 107%; in that of `O=C(NCc1nc2ccccc2s1)c1ccc2c(c1)OCCO2` [CBK295325], 107%; in that of `Cc1ccc(C(=O)Nc2nc(C)c(-c3n[nH]c(=S)n3C)s2)cn1` [CBK295327], 91.8%.

For `C=CCn1c(Cc2csc(NC(=O)c3cc4ccccc4o3)n2)n[nH]c1=S` [CBK295329], the viability at 28.5 h, 10 µM amounted to 104%. In the case of `COc1cc2c(cc1OC)CN(C(=O)c1ccc3[nH]cnc3c1)CC2` [CBK295331], the viability at 28.5 h, 10 µM was 52.8%.

`CC1CCN(S(=O)(=O)c2ccc(NC(=O)C3=COCCO3)cc2)CC1` [CBK295332]: the viability at 28.5 h, 10 µM came out at 102%.

In the case of `CCc1ccc(CN(C)C(=O)COC(=O)c2cc(-c3ccccc3)nc3onc(C)c23)cc1` [CBK295334], the viability at 28.5 h, 10 µM was found to be 89.5%. In the case of `Cc1nc(NC(=O)c2cccc(NC(=O)C3CCCO3)c2)sc1-c1n[nH]c(=S)n1C` (centres unmarked) [CBK295341], the viability at 28.5 h, 10 µM turned out to be 86.9%.

Take `COc1ccc(-c2n[nH]c(=S)n2CC(=O)Nc2ccc(NC(=O)CC(C)C)cc2)cc1` [CBK295342]: the viability at 28.5 h, 10 µM stood at 100%. In the case of `Cc1cc(NS(=O)(=O)c2ccc(Oc3ccc(-c4ccccc4)cc3)nc2)no1` [CBK295343] it was 90.8%; in that of `Cc1ccc(C(CC(=O)O)NC(=O)c2ccc(S(=O)(=O)N3CCCC(C)C3)cc2)cc1` (centres unmarked) [CBK295345], 95.7%; in that of `O=C(c1ccc2[nH]nnc2c1)N1CCN(S(=O)(=O)Cc2ccccc2)CC1` [CBK295346], 79.3%. With `O=C(CCc1nc(O)c2c3c(sc2n1)CCCC3)NCC(=O)Nc1ccccc1Br` [CBK295348] the figure was 101%; with `Nc1ncccc1C(=O)OCc1ccc(-c2ccccc2)cc1` [CBK295353], 94.2%. Consider `COC(=O)C1=C(C)N(c2ccc(C(=O)O)cc2)C(=O)NC1c1cccc(OC)c1OC` (centres unmarked) [CBK295355], for which the viability at 28.5 h, 10 µM came out at 112%.

As for `CCCCn1c(SCc2nc(-c3cccc(Cl)c3)no2)n[nH]c1=O` [CBK295356], the viability at 28.5 h, 10 µM amounted to 116%. In the case of `C=CCn1c(Cc2csc(NC(=O)c3cc(C)cc(C)c3)n2)n[nH]c1=S` [CBK295358] it was 77%; in that of `C=CCn1c(Cc2csc(NC(=O)Cc3ccc(Cl)cc3)n2)n[nH]c1=S` [CBK295359], 96.3%. For `Cc1noc(C)c1C(=O)N(C)CC(=O)Nc1ccc(Cl)c(C(F)(F)F)c1` [CBK295363], the viability at 28.5 h, 10 µM was 95.7%. With `Nc1ncnc2sc3c(c12)CCN(C(=O)c1ccc2nccnc2c1)C3` [CBK295588] the figure was 102%; with `Cc1cc(-n2c(C)cc(C(=O)CSc3n[nH]c(=O)n3CC3CCCO3)c2C)no1` (centres unmarked) [CBK295589], 112%; with `CN(C(=O)COC(=O)c1cc(-c2ccco2)nc2ccccc12)C1(C#N)CCCCC1` [CBK295591], 93.2%.

With `O=c1[nH]nc(SCCCOc2ccc(Cl)cc2)n1C1CC1` [CBK295597], the viability at 28.5 h, 10 µM was 115%. Turning to `Cc1cccc(OCCNC(=O)CSc2n[nH]c(=O)n2C2CC2)c1` [CBK295599], the viability at 28.5 h, 10 µM turned out to be 94.2%. In the case of `O=C(CNC(=O)C1CC=CCC1C(=O)O)Nc1ccc(N2CCCCCC2)cc1` (centres unmarked) [CBK295603] it was 90.8%; in that of `Cc1c(C=Cc2cc(C(=O)O)c3ccccc3n2)cc(C#N)n1C` [CBK295604], 104%; in that of `O=C(Nc1ccnn1Cc1cccs1)c1cc(=O)[nH]c2ccccc12` [CBK295606], 102%. For the molecule `Cc1cc(C(=O)Nc2nnc(Cc3ccccc3)s2)c2ccccc2n1` [CBK295607], the viability at 28.5 h, 10 µM came to 93.3%. With `COc1ccc(N)cc1OCc1cn2ccccc2n1` [CBK295609] the figure was 57.2%; with `Cc1c(C(=O)O)sc2nc(C=Cc3cc([N+](=O)[O-])ccc3Cl)[nH]c(=O)c12` [CBK295613], 121%; with `COc1ccc(C(=O)C=c2[nH]c(=O)c(=Cc3ccc(C(=O)O)cc3)s2)cc1` [CBK295614], 99.6%. In the case of `CCCn1c(SCC(=O)Nc2scc(CC(C)C)c2C(=O)OCC)n[nH]c1=O` [CBK295615] it was 98.1%. In the case of `O=C(O)CCc1ccc(S(=O)(=O)Nc2ccccc2Cc2ccccc2)cc1` [CBK295616] it was 99.6%; in that of `Cc1nc2ccc(C(=O)c3ccccc3O)cn2c(=O)c1CCC(=O)O` [CBK295618], 94.5%. Take `Cc1c(C(=O)O)sc2nc3c(Cl)cc(C(=O)c4ccccc4O)cn3c(=O)c12` [CBK295619]: the viability at 28.5 h, 10 µM is 98.5%. In the case of `O=C(CSc1n[nH]c(=O)n1C1CC1)NCCCSc1ccccc1` [CBK295620] it was 104%.

The values are drawn from publication PMC12040169 (PLOS Biology, 2025).
